In general, IC50 refers to the midpoint of a concentration-inhibition curve.

Counter-ions that a name gives are not always drawn. Like-named read-outs stand apart in the source and are kept apart here.

Data on 16 compounds can be found in US10710994B2, “Oxadiazole transient receptor potential channel inhibitors” (Genentech, Inc., priority 2018, dated 2020).

The target of the experiment is human TRPA1 channel (Homo sapiens (Human), UniProt O75762). The experiment is described as follows: hTRPA1 CHO Ca2+ FLIPR Tetra assay: block of cinnamaldehyde induced calcium influx. In kind it is cell-based. Particulars: CHO cells expressing TRPA1, Hill coefficient fixed to 1.5. The gist of the method:
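TRPA1-expressing CHO cells loaded with calcium indicator dye (1 h 37° C, then 15 min room temperature) in HBSS/20 mM HEPES pH 7.4/0.02% BSA. IC50 from fits with fixed Hill coefficient.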

The mark [1] stands for this setting: read-out: hTRPA1 IC50 10 min, 10 minutes incubation with compound before cinnamaldehyde (about EC80).
Setting [2] is: read-out: hTRPA1 IC50 90 min, 90 minutes incubation with compound before cinnamaldehyde (about EC80).

Chain of human TRPA1 channel (O75762 whole entry): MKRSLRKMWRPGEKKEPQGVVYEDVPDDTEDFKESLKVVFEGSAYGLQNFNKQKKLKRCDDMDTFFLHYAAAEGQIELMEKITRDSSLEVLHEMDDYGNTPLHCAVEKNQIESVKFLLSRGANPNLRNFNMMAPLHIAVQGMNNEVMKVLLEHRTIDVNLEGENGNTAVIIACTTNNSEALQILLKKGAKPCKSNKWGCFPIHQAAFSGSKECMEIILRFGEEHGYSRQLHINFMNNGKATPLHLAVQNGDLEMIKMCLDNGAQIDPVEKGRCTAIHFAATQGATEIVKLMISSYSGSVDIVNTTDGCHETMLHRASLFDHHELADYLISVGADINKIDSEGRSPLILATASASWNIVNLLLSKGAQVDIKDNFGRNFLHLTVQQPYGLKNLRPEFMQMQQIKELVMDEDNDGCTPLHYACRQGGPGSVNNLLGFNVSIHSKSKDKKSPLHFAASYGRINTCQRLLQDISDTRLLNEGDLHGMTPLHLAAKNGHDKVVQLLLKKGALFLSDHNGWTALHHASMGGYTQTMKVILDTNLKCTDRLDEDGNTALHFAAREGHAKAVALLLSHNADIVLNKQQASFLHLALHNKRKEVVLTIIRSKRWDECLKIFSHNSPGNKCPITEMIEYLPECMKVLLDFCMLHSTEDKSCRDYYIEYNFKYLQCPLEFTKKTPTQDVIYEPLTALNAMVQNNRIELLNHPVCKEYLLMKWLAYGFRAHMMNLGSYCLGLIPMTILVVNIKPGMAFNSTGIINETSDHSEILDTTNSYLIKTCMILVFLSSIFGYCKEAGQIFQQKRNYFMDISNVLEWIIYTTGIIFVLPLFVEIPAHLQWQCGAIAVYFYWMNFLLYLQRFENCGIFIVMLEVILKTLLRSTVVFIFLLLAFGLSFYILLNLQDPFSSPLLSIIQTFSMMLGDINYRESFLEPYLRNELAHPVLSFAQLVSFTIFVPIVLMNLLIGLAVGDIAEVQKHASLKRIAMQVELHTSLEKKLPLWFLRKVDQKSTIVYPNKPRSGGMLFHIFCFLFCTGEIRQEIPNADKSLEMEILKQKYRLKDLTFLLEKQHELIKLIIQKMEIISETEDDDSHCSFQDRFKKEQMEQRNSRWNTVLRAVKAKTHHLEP

Regarding `Cc1nc2ncn(C)c2c(=O)n1Cc1nc([C@@H]2CO[C@@H](c3ccc(F)cc3)C2)no1` [Example 137, 1-((3-((3R,5R)-5-(4-fluorophenyl)tetrahydro-furan-3-yl)-1,2,4-oxadiazol-5-yl)methyl)-2,7-dimethyl-1,7-dihydro-6H-purin-6-one], the 50% inhibitory concentration (IC50) by setting is: under setting [1], 64.1 nM; under setting [2], 13 nM.
For `Cc1cnn2ncn(Cc3nc([C@@H]4CO[C@@H](c5ccc6cnn(C)c6c5)C4)no3)c(=O)c12` [Example 138, 5-methyl-3-((3-((3R,5R)-5-(1-methyl-1H-indazol-6-yl)tetrahydrofuran-3-yl)-1,2,4-oxadiazol-5-yl)methyl)pyrazolo[5,1-f][1,2,4]triazin-4(3H)-one], in that order: 8.26 nM and 2.3 nM.
Turning to `Cc1cnn2ncn(Cc3nc([C@@H]4CO[C@@H](c5ccc6cn[nH]c6c5)C4)no3)c(=O)c12` [Example 139, 3-((3-((3R,5R)-5-(1H-indazol-6-yl)tetrahydrofuran-3-yl)-1,2,4-oxadiazol-5-yl)methyl)-5-methylpyrazolo[5,1-f] [1,2,4]triazin-4(3H)-one], the half-maximal inhibitory concentration (IC50) was 19.5 nM under setting [1] and 7.5 nM under setting [2].
`Cn1nnc2cnn(Cc3nc([C@@H]4CO[C@@H](c5ccc(Cl)cc5)C4)no3)c(=O)c21` [Example 140, 5-((3-((3R,5R)-5-(4-chlorophenyl)tetrahydro-furan-3-yl)-1,2,4-oxadiazol-5-yl)methyl)-3-methyl-3,5-dihydro-4H-[1,2,3]triazolo[4,5-d]pyridazin-4-one]: the IC50 is, setting by setting: under setting [1], 80.1 nM; under setting [2], 43 nM.
For `Cn1cnc2nnn(Cc3nc([C@@H]4CO[C@@H](c5ccc(Cl)cc5)C4)no3)c(=O)c21` [Example 141, 3-((3-((3R,5R)-5-(4-chlorophenyl)tetrahydro-furan-3-yl)-1,2,4-oxadiazol-5-yl)methyl)-5-methyl-3,5-dihydro-4H-imidazo[4,5-d][1,2,3] triazin-4-one] the same measures were 30.9 nM and 11 nM.
On to `Cc1cnn2ncn(Cc3nc([C@@H]4CO[C@@H](c5ccc6ncsc6c5)C4)no3)c(=O)c12` [Example 142, 3-((3-((3R,5R)-5-(benzo[d]thiazol-6-yl)tetrahydrofuran-3-yl)-1,2,4-oxadiazol-5-yl)methyl)-5-methylpyrazolo[5,1-f] [1,2,4]triazin-4(3H)-one], for which the IC50 reads like this: under setting [1], 81.7 nM; under setting [2], 40 nM.
With `Nc1nn2ncc(Cl)c2c(=O)n1Cc1nc([C@@H]2CO[C@@H](c3ccc(F)cc3)C2)no1` [Example 143, 2-amino-5-chloro-3-((3-((3R,5R)-5-(4-fluorophenyl)tetrahydro-furan-3-yl)-1,2,4-oxadiazol-5-yl)methyl)pyrazolo[5,1-f][1,2,4]triazin-4(3H)-one], the IC50 reads like this: under setting [1], 56.9 nM; under setting [2], 6.6 nM.
For `Cn1cnc2nc(N)n(Cc3nc([C@@H]4CO[C@@H](c5ccc(F)cc5)C4)no3)c(=O)c21` [Example 144, 2-amino-1-((3-((3R,5R)-5-(4-fluorophenyl)tetrahydro-furan-3-yl)-1,2,4-oxadiazol-5-yl)methyl)-7-methyl-1,7-dihydro-6H-purin-6-one] the same measures were 56.9 nM and 6.6 nM.
`Cc1c(N)nn2ncn(Cc3nc([C@@H]4CO[C@@H](c5ccc(F)cc5)C4)no3)c(=O)c12` [Example 145, 6-amino-3-((3-((3R,5R)-5-(4-fluorophenyl)tetrahydro-furan-3-yl)-1,2,4-oxadiazol-5-yl)methyl)-5-methylpyrazolo[5,1-f][1,2,4]triazin-4(3H)-one]: the IC50 is 9.28 nM under setting [1] and 46 nM under setting [2].
Take `O=c1c2c(cnn1Cc1nc([C@@H]3CO[C@@H](c4ccc(Cl)cc4)C3)no1)CNCC2` [Example 146, 2-((3-((3R,5R)-5-(4-chlorophenyl)tetrahydro-furan-3-yl)-1,2,4-oxadiazol-5-yl)methyl)-5,6,7,8-tetrahydropyrido[3,4-d] pyridazin-1(2H)-one hydrochloride]: the IC50 reads like this: under setting [1], 2600 nM; under setting [2], 97 nM.
For `O=c1c2cccnc2ncn1Cc1nc([C@@H]2CO[C@@H](c3ccc(F)cc3)C2)no1` [Example 147, 3-((3-((3R,5R)-5-(4-fluorophenyl)tetrahydro-furan-3-yl)-1,2,4-oxadiazol-5-yl)methyl)pyrido[2,3-d]pyrimidin-4(3H)-one], in that order: 107 nM and 82 nM.
Consider `Cc1cnn2ncn(Cc3nc([C@@H]4CO[C@@H](c5ccc(Cl)cn5)C4)no3)c(=O)c12` [Example 148, 3-((3-((3R,5R)-5-(5-chloropyridin-2-yl)tetrahydrofuran-3-yl)-1,2,4-oxadiazol-5-yl)methyl)-5-methylpyrazolo[5,1-f] [1,2,4]triazin-4(3H)-one], for which the half-maximal inhibitory concentration (IC50) reads like this: under setting [1], 21.3 nM; under setting [2], 14 nM.
As to `Nc1nn2c(C(F)(F)F)ncc2c(=O)n1Cc1nc([C@@H]2CO[C@@H](c3ccc(Cl)cc3)C2)no1` [Example 149, 2-amino-3-((3-((3R,5R)-5-(4-chlorophenyl)tetrahydro-furan-3-yl)-1,2,4-oxadiazol-5-yl)methyl)-7-(trifluoromethyl)imidazo [5,1-f][1,2,4]triazin-4(3H)-one], the IC50 under setting [1] came out at 4.48 nM and the IC50 under setting [2] turned out to be 2.1 nM.
As to `Cn1ncc2nc(N)n(Cc3nc([C@@H]4CO[C@@H](c5ccc(Cl)cc5)C4)no3)c(=O)c21` [Example 150, 5-amino-6-((3-((3R,5R)-5-(4-chlorophenyl)tetrahydro-furan-3-yl)-1,2,4-oxadiazol-5-yl)methyl)-1-methyl-1,6-dihydro-7H-pyrazolo[4,3-d] pyrimidin-7-one], the IC50 was found to be 3.19 nM under setting [1] and 1.7 nM under setting [2].
On to `Cn1ncc2ncn(Cc3nc([C@@H]4CO[C@@H](c5ccc(Cl)cc5)C4)no3)c(=O)c21` [Example 151, 6-((3-((3R,5R)-5-(4-chlorophenyl)tetrahydro-furan-3-yl)-1,2,4-oxadiazol-5-yl)methyl)-1-methyl-1,6-dihydro-7H-pyrazolo[4,3-d] pyrimidin-7-one], for which the IC50 reads like this: under setting [1], 47 nM; under setting [2], 32 nM.
For `Nc1nc2cccnc2n1Cc1nc([C@@H]2CO[C@@H](c3ccc(Cl)cc3)C2)no1` [Example 155, 3-[[3-[(3R,5R)-5-(4-chlorophenyl)tetrahydro-furan-3-yl]-1,2,4-oxadiazol-5-yl]methyl]imidazo[4,5-b]pyridin-2-amine] the same measures were 10.3 nM and 7.5 nM.
